Assays:
[1] = biological target: T1, recombinant human transglutaminase 2 (Homo sapiens, UniProt P21980); test: Transglutaminase assay (dansylcadaverine incorporation into dimethylcasein, DCC-assay); type: biochemical; settings: recombinant human TG2 10 nM, dansylcadaverine/dimethylcasein, 37° C.
T1 construct: purchased Zedira T022
T1 sequence (P21980 1-687): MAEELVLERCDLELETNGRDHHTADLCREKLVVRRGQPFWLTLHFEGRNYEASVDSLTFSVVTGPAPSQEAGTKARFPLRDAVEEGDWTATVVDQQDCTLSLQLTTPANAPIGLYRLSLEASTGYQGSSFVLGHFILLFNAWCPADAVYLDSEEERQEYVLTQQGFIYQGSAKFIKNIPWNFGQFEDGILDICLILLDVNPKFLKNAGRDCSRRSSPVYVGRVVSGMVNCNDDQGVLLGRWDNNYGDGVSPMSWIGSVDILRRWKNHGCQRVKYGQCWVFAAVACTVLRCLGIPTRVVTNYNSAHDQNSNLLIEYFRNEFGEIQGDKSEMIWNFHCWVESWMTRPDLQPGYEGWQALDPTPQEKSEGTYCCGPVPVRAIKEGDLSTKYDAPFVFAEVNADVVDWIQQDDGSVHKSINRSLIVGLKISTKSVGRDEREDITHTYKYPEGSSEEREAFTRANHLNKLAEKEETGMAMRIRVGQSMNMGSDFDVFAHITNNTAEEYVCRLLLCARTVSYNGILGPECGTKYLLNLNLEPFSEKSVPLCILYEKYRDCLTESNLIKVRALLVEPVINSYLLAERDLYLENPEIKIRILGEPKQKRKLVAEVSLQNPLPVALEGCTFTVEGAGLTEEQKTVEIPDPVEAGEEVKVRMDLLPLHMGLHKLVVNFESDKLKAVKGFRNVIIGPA
Method in brief: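 IC50 derived from fluorescence slope between 20 and 30 min (λex 330 nm, λem 500 nm, 37 °C), expressed relative to a 2% DMSO control. Reaction: 10 nM recombinant human TG2, 4 μM dimethylcasein, 16.7 μM dansylcadaverine, 10 mM CaCl2 and glutathione, pH 8.0.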

[2] = Log D shake flask method (octanol / PBS pH 7.4, HPLC); type: physicochemical; settings: octanol/phosphate-buffered saline (PBS); octanol / PBS pH 7.4, shake flask
Method: In order to classify the inventive compounds according to their lipophilicity, Log D values (distribution coefficient) were determined by means of the well-established shake flask method, measuring the partition of a compound between an octanol and phosphate-buffered saline (PBS, pH 7.4) by HPLC.

[3] = Caco-2 permeability assay (CacoReady kit); type: in vitro ADME; settings: human
Method in brief: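 Intestinal permeability modelled with kit-supplied Caco-2 barriers, run as the maker specifies; each compound reported as Papp.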

SMILES	IC50 [1] [nM]	logD [2]	Papp [3] [×10⁻⁶ cm/s]
COC(=O)/C=C/CC[C@H](NC(=O)c1oc2ccccc2c1C)C(=O)Nc1cccn(CC(=O)N(C)C2C3CC4CC(C3)CC2C4)c1=O (stereo partly drawn) [III-37, (S,E)-methyl 7-(1-(2-(2-adamantyl(methyl)amino)-2-oxoethyl)-2-oxo-1,2-dihydropyridin-3-ylamino)-6-(3-methylbenzofuran-2-carboxamido)-7-oxohept-2-enoate]	25 to 250	3 to 5	1 to 10
COC(=O)/C=C/CC[C@H](NC(=O)c1oc2ccccc2c1C)C(=O)Nc1cccn(CC(=O)NC23CC4CC(C2)CC(C(=O)OC)(C4)C3)c1=O [III-54, (S,E)-methyl 7-(1-(2-(3-methyladamantane-3-carboxylate-1-amino)-2-oxoethyl)-2-oxo-1,2-dihydropyridin-3-ylamino)-6-(3-methylbenzofuran-2-carboxamido)-7-oxohept-2-enoate]	25 to 250	3 to 5	< 1
COC(=O)/C=C/CC[C@H](NC(=O)c1cc(Cl)sc1Cl)C(=O)Nc1cccn(CC(=O)N[C@H]2C[C@H]3CC[C@]2(C)C3(C)C)c1=O [III-128, (S,E)-methyl 6-(2,5-dichlorothiophene-3-carboxamido)-7-oxo-7-(2-oxo-1-(2-oxo-2-((1R,2S,4R)-1,7,7-trimethylbicyclo[2.2.1]heptan-2-ylamino)ethyl)-1,2-dihydropyridin-3-ylamino)hept-2-enoate]	< 25	3 to 5	1 to 10
COC(=O)/C=C/CC[C@H](NC(=O)c1oc2ccccc2c1C)C(=O)Nc1cccn(CC(=O)N[C@]23C[C@H]4C5CC6CC4[C@@H](C2)[C@@H](C6)[C@@H]5C3)c1=O (stereo in doubt) [III-74, (S,E)-methyl 7-(1-(2-(diamantane-4-amino)-2-oxoethyl)-2-oxo-1,2-dihydropyridin-3-ylamino)-6-(3-methylbenzofuran-2-carboxamido)-7-oxohept-2-enoate]	< 25	3 to 5	1 to 10
COC(=O)/C=C/CC[C@H](NC(=O)c1ccc2ccoc2c1)C(=O)Nc1cccn(CC(=O)NC2C3CC4CC2CC(C(N)=O)(C4)C3)c1=O (stereo partly drawn) [III-166, (S,E)-methyl 6-(benzofuran-6-carboxamido)-7-(1-(2-(4-aminoadamantane-1-carboxamide)-2-oxoethyl)-2-oxo-1,2-dihydropyridin-3-ylamino)-7-oxohept-2-enoate]	25 to 250	1 to 3	< 1
COC(=O)/C=C/CC[C@H](NC(=O)c1cccnn1)C(=O)Nc1cccn(CC(=O)NC2C3CC4CC(C3)CC2C4)c1=O (stereo partly drawn) [III-86, (S,E)-methyl 7-(1-(2-(2-adamantylamino)-2-oxoethyl)-2-oxo-1,2-dihydropyridin-3-ylamino)-7-oxo-6-(pyridazine-3-carboxamido)hept-2-enoate]	< 25	1 to 3	< 1
COC(=O)/C=C/CC[C@H](NC(=O)c1cn[nH]n1)C(=O)Nc1cccn(CC(=O)NC2C3CC4CC(C3)CC2C4)c1=O (stereo partly drawn) [III-101, (S,E)-methyl 7-(1-(2-(2-adamantylamino)-2-oxoethyl)-2-oxo-1,2-dihydropyridin-3-ylamino)-7-oxo-6-(2H-1,2,3-triazole-4-carboxamido)hept-2-enoate]	25 to 250	1 to 3	< 1
COC(=O)/C=C/CC[C@H](NC(=O)c1ccnn1C)C(=O)Nc1cccn(CC(=O)N[C@@H]2C[C@H]3CC[C@@H]2C3)c1=O [III-111, (S,E)-methyl 7-(1-(2-((1R,2R,4S)-bicyclo[2.2.1]heptan-2-ylamino)-2-oxoethyl)-2-oxo-1,2-dihydropyridin-3-ylamino)-6-(1-methyl-1H-pyrazole-5-carboxamido)-7-oxohept-2-enoate]	< 25	1 to 3	< 1
COC(=O)/C=C/CC[C@H](NC(=O)c1sc(C(F)(F)F)nc1C)C(=O)Nc1cccn(CC(=O)N[C@H]2C[C@H]3CC[C@]2(C)C3(C)C)c1=O [III-127, (S,E)-methyl 6-(4-methyl-2-(trifluoromethyl)thiazole-5-carboxamido)-7-oxo-7-(2-oxo-1-(2-oxo-2-((1R,2S,4R)-1,7,7-trimethylbicyclo[2.2.1]heptan-2-ylamino)ethyl)-1,2-dihydropyridin-3-ylamino)hept-2-enoate]	< 25	3 to 5	1 to 10
COC(=O)/C=C/CC[C@H](NC(=O)[C@@H]1CCCN1C)C(=O)Nc1cccn(CC(=O)NC2C3CC4CC(C3)CC2C4)c1=O (stereo partly drawn) [III-25, (S,E)-methyl 7-(1-(2-(2-adamantylamino)-2-oxoethyl)-2-oxo-1,2-dihydropyridin-3-ylamino)-6-((S)-1-methylpyrrolidine-2-carboxamido)-7-oxohept-2-enoate]	25 to 250	3 to 5	< 1
COC(=O)/C=C/CC[C@H](NC(=O)c1cc2cc(Br)ccc2s1)C(=O)Nc1cccn(CC(=O)NC2C3CC4CC(C3)CC2C4)c1=O (stereo partly drawn) [III-6, (S,E)-methyl 6-(5-bromobenzo[b]thiophene-2-carboxamido)-7-(1-(2-(2-adamantylamino)-2-oxoethyl)-2-oxo-1,2-dihydropyridin-3-ylamino)-7-oxohept-2-enoate]	< 25	3 to 5	1 to 10
CCOC(=O)/C=C/CC[C@H](NC(=O)c1cncn1C)C(=O)Nc1cccn(CC(=O)NC2C3CC4CC(C3)CC2C4)c1=O (stereo partly drawn) [III-99, (S,E)-ethyl 7-(1-(2-(2-adamantylamino)-2-oxoethyl)-2-oxo-1,2-dihydropyridin-3-ylamino)-6-(1-methyl-1H-imidazole-5-carboxamido)-7-oxohept-2-enoate]	25 to 250	3 to 5	< 1
COC(=O)/C=C/CC[C@H](NC(=O)c1oc2ccccc2c1C)C(=O)Nc1cccn(CC(=O)N[C@@H]2C[C@H]3CC[C@@H]2C3)c1=O [III-63, (S,E)-methyl 7-(1-(2-((1R,2R,4S)-bicyclo[2.2.1]heptan-2-ylamino)-2-oxoethyl)-2-oxo-1,2-dihydropyridin-3-ylamino)-6-(3-methylbenzofuran-2-carboxamido)-7-oxohept-2-enoate]	< 25	3 to 5	1 to 10
COC(=O)/C=C/CC[C@H](NC(=O)c1nonc1N)C(=O)Nc1cccn(CC(=O)NC23CC(C2)C3)c1=O [III-160, (S,E)-methyl 6-(4-amino-1,2,5-oxadiazole-3-carboxamido)-7-(1-(2-(bicyclo[1.1.1]pentan-1-ylamino)-2-oxoethyl)-2-oxo-1,2-dihydropyridin-3-ylamino)-7-oxohept-2-enoate]	250 to 1500	< 1	< 1
COC(=O)/C=C/CC[C@H](NC(=O)c1cc(Cl)sc1Cl)C(=O)Nc1cccn(CC(=O)NC2C3CC4CC(C3)CC2C4)c1=O (stereo partly drawn) [III-13, (S,E)-methyl 6-(2,5-dichlorothiophene-3-carboxamido)-7-(1-(2-(2-adamantylamino)-2-oxoethyl)-2-oxo-1,2-dihydropyridin-3-ylamino)-7-oxohept-2-enoate]	< 25	3 to 5	1 to 10
Cc1cc(C(=O)N[C@@H](CC/C=C/C(=O)Nc2ccccc2)C(=O)Nc2cccn(CC(=O)NC34CC(C3)C4)c2=O)c(C)o1 [III-153, (S,E)-N7-(1-(2-(bicyclo[1.1.1]pentan-1-ylamino)-2-oxoethyl)-2-oxo-1,2-dihydropyridin-3-yl)-6-(2,5-dimethylfuran-3-carboxamido)-N1-phenylhept-2-enediamide]	25 to 250	1 to 3	1 to 10
COC(=O)/C=C/CC[C@H](NC(=O)c1oc2ccccc2c1C)C(=O)Nc1cccn(CC(=O)NC23CC4CC5C2C[C@@H]2C[C@H]5C(C4)[C@H]3C2)c1=O [III-73, (S,E)-methyl 7-(1-(2-(diamantane-1-amino)-2-oxoethyl)-2-oxo-1,2-dihydropyridin-3-ylamino)-6-(3-methylbenzofuran-2-carboxamido)-7-oxohept-2-enoate]	< 25	3 to 5	1 to 10
COC(=O)/C=C/CC[C@H](NC(=O)c1cnnn1C)C(=O)Nc1cccn(CC(=O)N[C@H]2C[C@H]3CC[C@]2(C)C3(C)C)c1=O [III-121, (S,E)-methyl 6-(1-methyl-1H-1,2,3-triazole-5-carboxamido)-7-oxo-7-(2-oxo-1-(2-oxo-2-((1R,2S,4R)-1,7,7-trimethylbicyclo[2.2.1]heptan-2-ylamino)ethyl)-1,2-dihydropyridin-3-ylamino)hept-2-enoate]	< 25	1 to 3	< 1
